For data set [1], the target named is T1, Xanthine dehydrogenase/oxidase (Bos taurus, UniProt P80457). Briefly: Compound was tested for the inhibition of xanthine oxidase; Active.
For data set [2], the target named is T1, Xanthine dehydrogenase/oxidase. The data set can be described thus: Compound was tested for the inhibition of xanthine oxidase; Inactive.

T1 sequence (P80457 whole entry): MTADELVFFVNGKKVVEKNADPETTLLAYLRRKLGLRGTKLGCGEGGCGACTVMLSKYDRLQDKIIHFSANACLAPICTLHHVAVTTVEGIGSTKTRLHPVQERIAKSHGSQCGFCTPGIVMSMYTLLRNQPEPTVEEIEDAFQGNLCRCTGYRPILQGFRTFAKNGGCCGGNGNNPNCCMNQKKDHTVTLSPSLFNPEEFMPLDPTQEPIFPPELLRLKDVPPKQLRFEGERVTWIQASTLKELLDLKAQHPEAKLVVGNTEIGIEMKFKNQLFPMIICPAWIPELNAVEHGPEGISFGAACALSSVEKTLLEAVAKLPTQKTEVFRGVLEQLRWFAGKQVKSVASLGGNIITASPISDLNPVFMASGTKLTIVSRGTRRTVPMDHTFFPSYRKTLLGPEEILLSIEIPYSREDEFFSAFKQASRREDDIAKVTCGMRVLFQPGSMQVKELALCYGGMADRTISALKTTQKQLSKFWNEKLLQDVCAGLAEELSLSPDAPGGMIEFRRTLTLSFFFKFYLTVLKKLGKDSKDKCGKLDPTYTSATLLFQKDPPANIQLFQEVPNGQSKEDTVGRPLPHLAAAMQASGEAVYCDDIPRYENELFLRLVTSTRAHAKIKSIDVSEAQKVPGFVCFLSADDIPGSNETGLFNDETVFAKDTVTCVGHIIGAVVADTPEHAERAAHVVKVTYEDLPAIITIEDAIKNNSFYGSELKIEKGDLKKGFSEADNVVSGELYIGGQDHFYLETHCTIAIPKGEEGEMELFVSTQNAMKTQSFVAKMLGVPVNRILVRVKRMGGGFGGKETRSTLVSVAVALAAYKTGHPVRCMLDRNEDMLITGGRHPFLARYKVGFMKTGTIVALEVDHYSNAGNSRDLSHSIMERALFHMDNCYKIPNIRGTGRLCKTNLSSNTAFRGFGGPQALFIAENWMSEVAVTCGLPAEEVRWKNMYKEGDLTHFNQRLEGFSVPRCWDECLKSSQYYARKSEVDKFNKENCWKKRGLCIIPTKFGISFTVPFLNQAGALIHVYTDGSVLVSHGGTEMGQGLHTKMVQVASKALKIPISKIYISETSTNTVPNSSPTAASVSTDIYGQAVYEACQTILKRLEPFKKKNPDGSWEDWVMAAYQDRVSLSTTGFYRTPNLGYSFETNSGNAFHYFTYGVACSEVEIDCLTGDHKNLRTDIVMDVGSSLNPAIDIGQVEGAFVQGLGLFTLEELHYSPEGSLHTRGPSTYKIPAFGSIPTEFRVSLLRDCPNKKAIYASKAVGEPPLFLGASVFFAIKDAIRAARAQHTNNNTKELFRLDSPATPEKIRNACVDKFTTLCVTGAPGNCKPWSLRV

For the compound `O=C1CCC(O)=C1O`, in data set [1], the outcome was Active. As to `O=C1COC(O)=C1O`, in data set [2], the Activity entry was “Not Active”. Regarding `O=C1O[C@H]([C@@H](O)CO)C(O)=C1O` [ASCORBIC ACID], the Activity entry in data set [2] is reported as “Not Active”.

The values are drawn from ChEMBL document CHEMBL1132726, “Antioxidant activity and xanthine oxidase inhibition activity of reductic acid: ascorbic acid analogue” (Bioorg Med Chem Lett, 2000).
